Data set [1] concerns NCI-H460. Put plainly: Cell-counting assay, 72-h drug exposure. The data set is classed as cell-based. As to conditions: Homo sapiens, read-out: Cell Growth Inhibitory Activity NCI-H460 IC50 72 h. From the text: For the cytotoxic activity studies and determination of GI50 concentrations in three different tumor cell lines, the cell culture conditions are described in Section 3.5. For the studies on the effect on % viable cells, cell cycle, cellular proliferation, and apoptosis, culture conditions are described in Section 3.6.1. For the remaining studies, the epithelial carcinoma cell line A431 and the non-small cell lung carcinoma cell line NCI-H460 were routinely grown in RPMI 1640 (Lonza, Vierviers, Belgium), supplemented with 10% (v/v) heat-inactivated fetal bovine serum (FBS, GIBCO, Invitrogen, Paisley, UK). The human peritoneal mesothelioma cell line STO was kindly provided by Dr. N. Zaffaroni (IRCCS Istituto Nazionale Tumori, Milan, Italy) and grown in 50/50 DMEM-Ham’s F12 medium (Lonza, Vierviers, Belgium), supplemented with 10% (v/v) heat-inactivated foetal bovine serum and 2 mM L-glutamine (L-Gln). All cell lines were maintained at 37 °C in a 5%/95% CO2/air atmosphere. All the compounds tested were freshly prepared by dissolving powder in dimethylsulfoxide (DMSO) (BDH Prolabo, Milan, Italy) and following dilution in culture medium. Cells were incubated with drugs for 48 h or 72 h (unless otherwise stated) at 37 °C in culture medium supplemented with 10% (v/v) heat-inactivated FBS; drug concentrations used for each assay and duration of treatments are reported in Legends to Figures.
Cellular sensitivity to drugs was evaluated by a cell-counting assay after 72-h drug exposure. Cells in the logarithmic phase of growth were seeded in duplicate into 6-well plates. Twenty-four hours after seeding, the drug was added to the medium. Cells were harvested 72 h after drug exposure and counted with a cell counter.

For data set [2], the system named is NCI-H460. Briefly: Apoptosis, Annexin V-FITC/PI flow cytometry. Format: cell-based, human. As to conditions: for % Apoptosis: 48 h, sum of early and late apoptosis; for Induction of apoptosis at cytotoxic concentrations: GI50 and 1.5× GI50, 48 h, Annexin V and propidium iodide. Here is the method:
NCI-H460 cells were plated in 6-well plates (1 × 10^5 cells/well) in RPMI-1640 medium with UltraGlutamine I and 25 mM Hepes (Lonza) supplemented with 10% FBS (PAA) at 37 °C in a humidified incubator with 5% CO2 for 24 h. […] These concentrations corresponded respectively to 5.2 μM and 7.8 μM for compound 5 and to 3.2 μM and 4.8 μM for compound 8. Cells were also incubated with medium only (Blank) or with the vehicle (solvent, H2O), corresponding to the highest concentration used when testing the compounds. Following treatment with the compounds, cells were further processed as follows. Following 48 h treatment, the levels of apoptosis were assessed using the “Human AnnexinV-FITC/PI apoptosis” kit (Bender MedSystems, Wien, Austria) as previously described. Briefly, cell pellets were resuspended in binding buffer and further incubated with Annexin V-FITC and with propidium iodide. Samples were analyzed in a FACSCalibur flow cytometer (BD Biosciences, Erembodegem, Belgium), plotting at least 15,000 events and using the FlowJo 7.6.5 software (Tree Star, Inc., Ashland, OR, USA).
(In general: Flow cytometry measures light scatter and fluorescence of single cells or particles in a stream.)

Data set [3] concerns A431 squamous cell carcinoma xenografts. Put plainly: Tumor growth of xenografted mouse model. Format: in vivo, nude mice. Here is the method:
Experiments were carried out using female athymic Swiss nude mice, 8–10 weeks old (Charles River, Calco, Italy). Mice were maintained in laminar flow rooms keeping temperature and humidity constant. Mice had free access to food and water. Experiments were approved by the Ethics Committee for Animal Experimentation of the Istituto Nazionale Tumori of Milan according to institutional guidelines. Epidermoid carcinoma cells, A-431 suspended in culture media were subcutaneously injected on the back of mice. When tumors were just palpable, the mice were randomly divided into two groups: control and compound-treated. Each group was constituted by 8 mice. Saline (0.9% NaCl) or compound solution (5 or 10 mg/kg, respectively) was i.p. administered daily during 3 weeks, to both groups. Tumor volume was assessed using calipers and determined according to the formula (d)^2xD/2.

For another data set, the target named is T1, HSP90 (Homo sapiens, UniProt P07900).
T1 construct: purchased Stressgen SPP-776
Briefly: HSP90 binding, fluorescence polarization with GM-FITC. As to conditions: displacement of GM-FITC 5 nM, 30 nM HSP90, 4 °C, 4 h; read-out: Binding HSP90 (FP) IC50. Here is the method:
GM-FITC Geldanamycin-fluorescein-5-isothiocyanate (working concentration: 1–400 nM), supplied by Invivogen (06C23-MT, San Diego, CA, USA), was previously dissolved in DMSO to obtain 10 mM stock solutions and kept at −20 °C until use. […] The compounds were previously dissolved in DMSO to obtain stock solutions and kept at −20 °C. The day of experiment, the compounds were prepared by serial dilutions in assay buffer (HFB) containing 20 mM HEPES (K) pH 7.3, 50 mM KCl, 5 mM MgCl2, 20 mM Na2MoO4 and 0.01% NP40. Before each use, 0.1 mg/mL Bovine Gamma globulin and 2 mM DTT were freshly added. […] The plate was mixed on a shaker at 4 °C for 4 h, and the FP values in mP (millipolarization units) were recorded. […] Curve fitting was performed using Prism GraphPad software program (GraphPad software, Inc., San Diego, CA, USA).
In general terms: In fluorescence polarisation assays a small probe gives low polarisation when free and higher when bound to something large.

Turning to `O=c1c2ccccc2oc2c[n+](Cc3ccccc3)ccc12.[Br-]` [Compound 5, 2-Benzyl-10-oxo-10H-9-oxa-2-azonia-anthracene bromide], the IC50 in the data set on NCI-H460 [1] stood at 4.8 ± 0.1 µM. Further, the “% Apoptosis” value is given as 7.2 ± 1.4% in the data set with NCI-H460 [2] (5.2 μM, Blank 7.0 ± 0.6) and 7.3 ± 0.9% with NCI-H460 [2] (7.8 μM, Blank 7.0 ± 0.6). In the data set with NCI-H460 [2], the “Induction of apoptosis at cytotoxic concentrations” value is recorded as “did not induce apoptosis”. The “Inhibition of tumor growth vs control group” value is “considerable inhibition of tumor growth” in data set [3] (5 mg/kg i.p. daily for three weeks) and “accentuated this difference to statistically significant values” in data set [3] (10 mg/kg i.p. daily for three weeks). Further, in data set [3] (5 and 10 mg/kg i.p., three weeks), the “Manifestations of toxicity (death and body weight loss)” value is “no evident manifestations of toxicity”.
In the case of `O=c1c2ccccc2sc2c[n+](Cc3ccccc3)ccc12.[Br-]` [Compound 8, 2-Benzyl-5-oxo-5H-thiochromeno[2,3-c]pyridin-2-ium bromide], on HSP90, the IC50 was found to be 3.7 ± 0.03 µM. Further, the “% Apoptosis” value in the data set on NCI-H460 [2] (3.2 μM, Blank 5.2 ± 0.9) is given as 6.7 ± 1.4%; in the data set on NCI-H460 [2] (4.8 μM, Blank 5.2 ± 0.9) it was 12.5 ± 1.7 %. Besides, the “Induction of apoptosis at cytotoxic concentrations” value in the data set on NCI-H460 [2] is listed as “induced apoptosis”.

One may read the IC50 as the point on the concentration scale where inhibition reaches its midpoint.

The values are drawn from publication PMC6017909, “Synthesis and Evaluation of the Tumor Cell Growth Inhibitory Potential of New Putative HSP90 Inhibitors” (Molecules : A Journal of Synthetic Chemistry and Natural …, 2018).
